Measurements reported in publication PMC6627486, “Ipomoeassin F Binds Sec61α to Inhibit Protein Translocation” (Journal of the American Chemical Society, 2019).
Where two headings read alike, the source gives them in different places.

Assays:
Format in all cases: cell-based, human
MCF7 = experiment: MTT cytotoxicity assay, MCF7; settings: Homo sapiens, MCF7, 72 h, read-out: Cytotoxicity (IC50)
Protocol: Two human breast cancer cell lines (MDA-MB-231 and MCF7) and one human breast non-tumorigenic epithelial cell line (MCF-10A) were maintained in a DMEM high glucose culture medium supplemented with 10% fetal bovine serum (FBS) and 2 mM L-glutamine. The cells were grown in a humidified atmosphere of 5% CO2 and 95% air at 37 °C . The culture medi um w as changed every 2–4 days depending on cell density. Cell cultures were passaged once a week using 0.125% trypsin-EDTA to detach the cells from culture flasks/dishes.
The human colorectal cancer cell line HCT116 was maintained in McCoy’s 5A (modified) medium supplemented with 10% fetal bovine serum (FBS). The human embryonic kidney (HEK293T and HEK293 FRT TRex) cell line was maintained in DMEM high glucose culture medium supplemented with 10% fetal bovine serum (FBS).
HepG2 cells were cultured in DMEM supplemented with 10% fetal bovine serum and 2 mM L-glutamine at 37°C under 5% CO2.
Viable cells were counted with a hemocytometer immediately before each experiment. Experiments were done in triplicate. First, 100 μL of MCF7 cells at the density of 50,000 cells/mL were seeded in a 96-well plate (5,000 cells/well), which was incubated at 37 °C and 5% CO2 atmosphere for 24 h. The compounds were dissolved in DMSO (dimethyl sulfoxide) to make drug stocks (10 mM). The stock solutions were diluted with the complete DMEM high glucose culture medium to make a series of gradient fresh working solutions right before each test. Subsequently, the cells were treated with 100 μL of the freshly made gradient working solution in a total volume of 200 μL/well for 72 h. After that, the media were discarded and 200 μL of the fresh complete medium containing 10% of MTT stock solution (5 mg/mL) was added to each well. The plate was then incubated at 37 °C and 5% CO2 for 3 h. Next, 180 μL of the medium was discarded from each well , and 180 μL of DMSO was added to each well to dissol ve formazan crystals. Absorbance of formazan was detected by a microplate reader (BioTek Synergy H1) at 570 nm with 650 nm as the reference wavelength. The percentage of viability compared to the negative control (DMSO-treated cells) was determined . GraphPad Prism 6 software was used to make a plot of %

HCT R66K = experiment: Alamar Blue viability, HCT116 Sec61α R66K (96 h)
Protocol: (§1) AlamarBlue Cytotoxicity Assay
(§2) MDA-MB-231, MCF-10A and HCT116. Viable cells were counted with a hemocytometer immediately before each experiment . Experiments were done in triplicate. First, 100 μL of MDA-MB-231 cells or MCF-10A cells at the density of 50,000 cells/mL was seeded in a 96-well plate (5,000 cells/well) and then incubated at 37 °C and 5% CO2 for 24 h. The compounds were dissolved in DMSO (dimethyl sulfoxide) to make drug stocks (10 mM). The stock solutions were diluted with the complete DMEM high glucose culture medium to make a series of gradient fresh working solutions right before each test. Subsequently, the cells were treated with 100 μL of the freshly made gradient working solution in a total volume of 200 μL/well for 72 h. After that, the media were discarded and 200 μL of the fresh complete medium containing 10% of AlamarBlue (resazurin) stock solution was added to each well. The plate was then incubated at 37 °C and 5% CO2 for another 3 h. Emission of each well at 620 nm was detected by a microplate reader (BioTek Synergy H1) at excitation 580 nm. For HCT116 WT and mutant lines, cells were seeded at 1000 cells/ well in complete McCoys medium. […] Cells were treated for 96 h, then viability measured with AlamarBlue, detected using the conditions described but with a BMG Fluostar Optima Microplate Reader. […]
(§3) was determined. […]

HCT D60G = experiment: Alamar Blue viability, HCT116 Sec61α D60G (96 h)
Protocol: as §1, §2, §3

[1] = test system: CD62L expression in Jurkat T cells; experiment: CD62L expression by Jurkat T cells; settings: 24 h treatment
Protocol: Jurkat E6.1 (ATCC TIB-152TM) T cells were cultured in RPMI GlutamaxTM (Life Technologies), supplemented with 10% heat-inactivated fetal calf serum (FCS) (Invitrogen) and penicillin/streptomycin (100 U/ml, 100 µg/ml). Cells were treated with Ipomoeassin F or mycolactone for 24 h, then pelleted and stained with FITC-conjugated anti-human CD62L (clone DREG-56 (BioLegend #304804) at 500 ng/ml) during 40 min at 4°C. Fluorescence signals were acquired on an Accuri CD (BD) and analyzed with the […]
FlowJo X software. […]

[2] = Homo sapiens, HCT-116, read-out: cell viability IC50

C/C=C(\C)C(=O)O[C@H]1[C@H](OC(=O)/C=C/c2ccc(OCc3cn(CCOCCOCCOCCNC(=O)CCCC[C@@H]4SC[C@@H]5NC(=O)N[C@@H]54)nn3)cc2)[C@@H](O)[C@@H]2O[C@H]3[C@H](O[C@@H](CCCCC)CCCCCCC(=O)CCC(=O)OC[C@H]1O2)O[C@H](C)[C@H](OC(C)=O)[C@@H]3O [compound 5]
IC50 (MCF7; MTT): 187 nM

C/C=C(\C)C(=O)O[C@@H]1[C@@H](O)[C@@H]2O[C@H]3[C@H](O[C@@H](CCCCC)CCCCCCC(=O)CCC(=O)OC[C@@H](O2)[C@H]1OC(=O)/C=C/c1ccccc1)O[C@H](C)[C@H](OC(C)=O)[C@@H]3O [ipomoeassin F]
IC50 (HCT R66K; [2]): 131 ± 15 nM
IC50 (HCT D60G; [2]): 88.1 ± 10.3 nM
IC50 ([1]; Homo sapiens): 6.3 nM
IC50 (MCF7): 36.4 nM

CC(=C\C=C\C(C)=C\[C@H](O)[C@@H](O)C[C@H](C)O)/C=C(C)/C=C/C(=O)O[C@H]1CCCC(=O)O[C@@H]([C@@H](C)C/C(C)=C/[C@@H](C)[C@H](O)C[C@@H](C)O)C/C=C(\C)C[C@@H]1C [mycolactone, reference compound]
IC50 (HCT R66K; read-out: cell viability IC50): > 330 nM
IC50 (HCT D60G; read-out: cell viability IC50): > 330 nM
IC50 [1]: 6.3 nM
